Measured values published in US20240301409A1, “Chemically Modified Small Activating RNA” (RACTIGEN THERAPEUTICS, priority 2021, published 2024).

Legend:
[1] = molecular target: T1, RNase A (Bos taurus, UniProt P61823)
T1 sequence (P61823 27-150): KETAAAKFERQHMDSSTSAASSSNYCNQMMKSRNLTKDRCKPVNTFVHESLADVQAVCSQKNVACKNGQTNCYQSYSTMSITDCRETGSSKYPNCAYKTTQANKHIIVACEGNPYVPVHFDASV

[2] = system: J82 cells; assay: Apoptosis detection (FITC Annexin V, flow cytometry) in J82 cells with or without PBMC co-culture; format: cell-based, human
Procedure: J82 cells were transfected with RAG1-40-31 and RAG1-40-53 at final concentrations of 0.1, 1, 10 and 25 nM, and 24 hours after transfection, fresh medium was replaced and a certain ratio of PBMC cells was added (J82 cells:PBMC cells=1:4). The cells were co-cultured for 48 hours. After co-culture, cells were collected and cell apoptosis was detected by flow cytometry. FIGS. 13A-13B show the relative proliferation proportion of J82 cells after the combined treatment with chemically modified saRNA RAG1-40-31 and Mitomycin C. […] Control and DMSO are the blank transfection control and the solvent for dilution control, respectively.
J82 cells were transfected with RAG1-40-31 at 0.1, 1, 10 and 25 nM. After 24 hours of transfection, the cells were refreshed with PBMC cell-containing fresh medium. The PBMC and J82 cells were co-cultured for 48 hours, and then the supernatant was discarded and the cells were collected. 500 μL PBS was added to each well for washing and then discarded, before the addition of 100 μL trypsin/well. 900 μL medium was added to stop digestion and the content was transferred to a 1.5 mL centrifuge tube. All the cells were collected through centrifugation (400 rcf, 5 min) and counted (1˜2×10^5 cells/100 μL Binding Buffer). 100 μL of 1× Binding Buffer (B&D Systems, 51-66121E), 5 μL FITC Annexin V (B&D Systems, 51-65874X) and 5 μL PI (B&D Systems, 51-66211E) were added before incubation in dark at room temperature for 15 minutes. After the incubation, 100 μL of 1× binding buffer was added before blending and transferring to a 96-well plate for analysis with flow cytometer (Beckman Coulter). The sample should be analyzed within 1 hour.
In order to verify this hypothesis, in this example, RAG1-40-31 duplex was selected to transfect J82 cells, and after 24 hours of transfection, the cells were refreshed with fresh medium and PBMC cells at a certain ratio (J82 cells:PBMC cells=1:4) were added, or cells free of PBMC were replaced as control. After 48 hours of co-culture, FITC Annexin V kit was used to detect the apoptosis of tumor cells on a flow cytometer. […] In PBMC-free cell culture, for RAG1-40-31 treatments at 0.1, 1, 10 and 25 nM, the percentages of cells in early apoptosis were 2.3%, 2.6%, 9.4% and 15.5%, respectively, and the percentages of cells in late apoptosis were 5.3%, 5.2%, 6.7% and 9.1%, respectively. In co-culture with PBMC cells, for RAG1-40-31 treatments at 0.1, 1, 10 and 25 nM, the percentages of cells in early apoptosis were 2.0%, 4.5%, 31.5% and 49.3%, respectively, and the percentages of cells in late apoptosis were 5.6%, 7.3%, 6.3% and 5.8%, respectively.

[3] = system: Ku-7-LG cells; assay: Cell cycle detection by flow cytometry in Ku-7-LG cells; format: cell-based, human; settings: 48 hours
Procedure: RAG1-40-31 and RAG1-40-53 were transfected into Ku-7-LG cells at the final concentrations of 0.1, 1, 10 and 50 nM, and the transfection duration was 48 hours. Two replicate wells were used for each treatment. After transfection, the cell cycle was analyzed by flow cytometry, and the collected data were analyzed by MotFit software.
After transfection, the supernatant was discarded to collect cells. To each well 500 μL PBS was added for one wash and then discarded. To each well 100 μL trypsin was further added. 900 μL medium was added to stop digestion before transferring to a 1.5 mL centrifuge tube. All the cells were collected through centrifugation (400 rcf, 5 min) and counted (2×10^5 cells/200 μL PBS). Cold 70% absolute ethanol was added before incubation overnight at 4° C. After washing twice with PBS, 200 μL Krishan buffer was added before incubation at 4° C. for 1 hour. After washing twice with PBS, the supernatant was discarded and 200 μL PBS was added for cell re-suspension, then the cells were transferred to a 96-well plate and analyzed by flow cytometer. The collected data were analyzed with MotFit software.
In order to study the mechanism of cellular proliferation suppression, change in cell cycle was analyzed using flow cytometry in this example. Randomly selected saRNAs RAG1-40-31 and RAG1-40-53 were transfected into Ku-7-LG cells at final concentrations of 0.1, 1, 10 and 50 nM, respectively, for 48 hours. Each treatment was set in duplicate. Cell cycle was detected and analyzed as described in the general protocol above.

[4] = co-culture with PBMC cells (1:4) 48 hours, 0.1 nM
[5] = co-culture with PBMC cells (1:4) 48 hours, 1 nM
[6] = co-culture with PBMC cells (1:4) 48 hours, 10 nM
[7] = co-culture with PBMC cells (1:4) 48 hours, 25 nM

Substance: RAG1-40-31: saRNA duplex: sense fCfCAACUCAUUCUCCAAG*U*C (SEQ ID NO 16); antisense U*A*fCfUfUGGAGAAfUGAGfUfUGG*fC*A (SEQ ID NO 12) (sense CCAACUCAUUCUCCAAGUC; antisense UACUUGGAGAAUGAGUUGGCA; 2'-F and phosphorothioate modifications; modified_base (1)..(2) (1,2)=2′-fluoro; modified_base (17)..(19) (17,18,19)=phosphorothioate (PS) backbone modification; modified_base (2)..(21) (2,3,19,20,21)=phosphorothioate (PS) backbone modification; modified_base (3)..(20) (3,4,5,12,16,17,20)=2′-fluoro)
- degradation of duplex at 96 hours [1]: little or no signs of degradation
- percentage of cells in early apoptosis ([2]; PBMC-free cell culture, 0.1 nM): 2.3%
- percentage of cells in late apoptosis ([2]; PBMC-free cell culture, 0.1 nM): 5.3%
- percentage of cells in early apoptosis ([2]; PBMC-free cell culture, 1 nM): 2.6%
- percentage of cells in late apoptosis ([2]; PBMC-free cell culture, 1 nM): 5.2%
- percentage of cells in early apoptosis ([2]; PBMC-free cell culture, 10 nM): 9.4%
- percentage of cells in late apoptosis ([2]; PBMC-free cell culture, 10 nM): 6.7%
- percentage of cells in early apoptosis ([2]; PBMC-free cell culture, 25 nM): 15.5%
- percentage of cells in late apoptosis ([2]; PBMC-free cell culture, 25 nM): 9.1%
- percentage of cells in early apoptosis [2, 4]: 2.0%
- percentage of cells in late apoptosis [2, 4]: 5.6%
- percentage of cells in early apoptosis [2, 5]: 4.5%
- percentage of cells in late apoptosis [2, 5]: 7.3%
- percentage of cells in early apoptosis [2, 6]: 31.5%
- percentage of cells in late apoptosis [2, 6]: 6.3%
- percentage of cells in early apoptosis [2, 7]: 49.3%
- percentage of cells in late apoptosis [2, 7]: 5.8%
- percentage of cells in DNA anaphase/mitosis (G2/M) ([3]; 0.1 nM): 6%
- percentage of cells in DNA replication phase (S phase) ([3]; 0.1 nM): 32%
- percentage of cells in prophase of DNA synthesis (G0/G1) ([3]; 0.1 nM): 62%
- percentage of cells in DNA anaphase/mitosis (G2/M) ([3]; 1 nM): 9%
- percentage of cells in DNA replication phase (S phase) ([3]; 1 nM): 22%
- percentage of cells in prophase of DNA synthesis (G0/G1) ([3]; 1 nM): 69%
- percentage of cells in DNA anaphase/mitosis (G2/M) ([3]; 10 nM): 8%
- percentage of cells in DNA replication phase (S phase) ([3]; 10 nM): 11%
- percentage of cells in prophase of DNA synthesis (G0/G1) ([3]; 10 nM): 81%
- percentage of cells in DNA anaphase/mitosis (G2/M) ([3]; 50 nM): 13%
- percentage of cells in DNA replication phase (S phase) ([3]; 50 nM): 6%
- percentage of cells in prophase of DNA synthesis (G0/G1) ([3]; 50 nM): 81%
